Results as given in US20260293897A1, “COMPOUND CONTAINING FIVE-MEMBERED HETEROCYCLE, PREPARATION METHOD THEREFOR, AND APPLICATION THEREOF” (QINGDAO KANGQIAO PESTICIDES AND CHEMICALS GROUP CO., LTD., priority 2022, published 2026).
Like-named read-outs stand apart in the source and are kept apart here.

Key:
Format in all cases: in vivo
[1] = tested on: Resistant Plutella xylostella; assay: Resistant Plutella xylostella Controlling Activity Test; conditions: Plutella xylostella, in Raphanus sativus, 72 h
Method: Resistant Plutella xylostella Controlling Activity Test:
Leaf dipping method was used, the appropriate amount of radish leaves were dipped into the drug for 10 s, placed in a plastic petri dish padded with filter paper and dried naturally, each dish was connected with 10 heads of 2nd instar small cabbage moths, placed in the observation room at 24° C. and light (16/8 h). 72 h later observation was made, and the body of the insect was touched lightly with a brush and no reaction was regarded as a dead insect, which was repeated for three times, and a blank control was also set up without any additional agent.

[2] = tested on: Tetranychus cinnabarinus; assay: Tetranychus cinnabarinus Controlling Activity Test; conditions: 72 h, read-out: mortality against Tetranychus cinnabarinus
Method: Tetranychus cinnabarinus Controlling Activity Test:
The test compound was dissolved in acetone and diluted to the desired concentration with 0.1 wt % aqueous tween 80, the acetone content not exceeding 5 wt %.
One real leaf was removed from kidney bean seedlings grown to two real leaves, inoculating Tetranychus cinnabarinus, investigating the base number, performing whole plant spraying treatment by using a handheld sprayer, repeating the treatment for 3 times (the application amount of the preparation is about 0.5 g), observing in a constant-temperature observation room after the treatment, investigating the number of live mites after 72 hours, and calculating the mortality. The number of Tetranychus cinnabarinus inoculated in each time is 35-100.
Mortality%=(number of inoculated insects−number of live insects after drug administration)÷number of inoculated insects×100%

[3] = tested on: Frankliniella occidentalis larvae; assay: Frankliniella occidentalis Larva Controlling Activity Test; conditions: for mortality at 3.25 ppm: read-out: mortality for Frankliniella occidentalis larvae
Method: Frankliniella occidentalis Larva Controlling Activity Test:
The test compound is dissolved in acetone and diluted to the desired concentration. 0.5 mL of the prepared acetone medicinal liquid is added into a glass tube (the inner diameter is 1 cm, the length is 10 cm), and the glass tube is repeatedly rolled on a flat table until the acetone solution is completely volatilized. Soaking cabbage leaves in the liquid medicine with the corresponding concentration for 15 s, drying, placing in a glass tube, inoculating 10-20 heads of Frankliniella occidentalis larvae in the glass tube, repeating the treatment for three times, observing in a constant-temperature observation room after the treatment, investigating the number of live insects after 72 hours, and calculating the mortality.

[4] = tested on: Sensitive Plutella xylostella; assay: Sensitive Plutella xylostella Controlling Activity Test
From the text: Sensitive Plutella xylostella Controlling Activity Test:
Test targets: Plutella xylostella, 3 rd instar larvae, a sensitive strain raised indoors.
The test method comprises the following steps: selecting fresh cabbage leaves cultivated in a greenhouse, making the cabbage leaves into round with the diameter of 3 cm by using a puncher, putting the circular blade into prepared liquid medicine to be soaked for 10 s according to the sequence from low dose to high dose of experimental design, naturally drying the cabbage leaves in the shade, putting the soaked cabbage leaves into a culture dish with filter paper and the diameter of 9 cm, inoculating regular healthy test insects, n=10, repeating the treatment for 3 times, and additionally setting blank control.

[5] = read-out: mortality against Plutella xylostella
[6] = 3.25 ppm (3.125 mg/L), larvae, 72 hours
[7] = 1 ppm (1 mg/L), 3rd instar larvae, sensitive strain, read-out: mortality against Plutella xylostella

Structure (SMILES) | mortality at 3.25 ppm ([3]; 72 h) | mortality at 1 ppm [4, 5] | mortality at 3.25 ppm [3, 6] | mortality at 1 ppm [4, 7] | also measured
CNC(=O)c1cc(Cl)cc(C)c1NC(=O)c1cc(Br)nn1-c1ncccc1Cl [Chlorantraniliprole, reference compound] |  |  |  |  | mortality at 0.2 ppm [1]: 33.3%; mortality at 1 ppm [1]: 40%; mortality at 5 ppm [1]: 66.7%
Cc1cc(C2=NOC(c3cc(Cl)c(Cl)c(Cl)c3)(C(F)(F)F)C2)ccc1C(=O)NC1CCS(=O)(=O)C1 (stereo not shown) [Compound I-3, N-(1,1-dioxotetrahydrothiophen-3-yl)-2-methyl-4-(5-(3,4,5-trichlorophenyl)-5-(trifluoromethyl)-4,5-dihydroisoxazol-3-yl) benzamide] | > 90% | > 90% |  |  | mortality at 1.6 ppm [2]: > 90%
CC(=O)N(C(=O)c1ccc(C2=NOC(c3cc(Cl)c(F)c(Cl)c3)(C(F)(F)F)C2)cc1C)C1CCS(=O)(=O)C1 (stereo not shown) [Compound I-9, N-acetyl-4-(5-(3,5-dichloro-4-fluorophenyl)-5-(trifluoromethyl)-4,5-dihydroisoxazol-3-yl)-N-(1,1-dioxotetrahydrothiophen-3-yl)-2-methylbenzamide] | > 90% | > 90% |  |  | mortality at 1.6 ppm [2]: > 90%; mortality at 0.2 ppm [1]: 43.3%; mortality at 1 ppm [1]: 100%; mortality at 5 ppm [1]: 100%
Cc1cc(C2=NOC(c3cc(Cl)c(F)c(Cl)c3)(C(F)(F)F)C2)ccc1C(=O)N[C@H]1CCS(=O)(=O)C1 (stereo partly drawn) [Compound I-13, 4-(5-(3,5-dichloro-4-fluorophenyl)-5-(trifluoromethyl)-4,5-dihydroisoxazol-3-yl)-N—((S)-1,1-dioxotetrahydrothiophen-3-yl)-2-methylbenzamide] | > 90% | > 90% |  |  | 
Cc1cc(C2=NO[C@@](c3cc(Cl)c(F)c(Cl)c3)(C(F)(F)F)C2)ccc1C(=O)N[C@H]1CCS(=O)(=O)C1 [Compound I-15] |  |  | > 90% | > 90% | 
Cc1cc(C2=NO[C@@](c3cc(Cl)c(F)c(Cl)c3)(C(F)(F)F)C2)ccc1C(=O)N[C@@H]1CCS(=O)(=O)C1 [Compound I-16] |  |  | > 90% | > 90% | 
Cc1cc(C2=NO[C@](c3cc(Cl)c(F)c(Cl)c3)(C(F)(F)F)C2)ccc1C(=O)N[C@H]1CCS(=O)(=O)C1 [Compound I-18] |  |  | > 90% | > 90% | 
Cc1cc(C2=NOC(c3cc(Cl)c(F)c(Cl)c3)(C(F)(F)F)C2)ccc1C(=O)N(C(=O)C(C)C)C1CCS(=O)(=O)C1 (stereo not shown) [Compound I-21, N-isopropionyl-4-(5-(3,5-dichloro-4-fluorophenyl)-5-(trifluoromethyl)-4,5-dihydroisoxazol-3-yl)-N-(1,1-dioxotetrahydrothiophen-3-yl)-2-methylbenzamide] | > 90% | > 90% |  |  | 
Cc1cc(C2=NOC(c3cc(Cl)c(F)c(Cl)c3)(C(F)(F)F)C2)ccc1C(=O)N(C(=O)C1CC1)C1CCS(=O)(=O)C1 (stereo not shown) [Compound I-22, N-cyclopropanoyl-4-(5-(3,5-dichloro-4-fluorophenyl)-5-(trifluoromethyl)-4,5-dihydroisoxazol-3-yl)-N-(1,1-dioxotetrahydrothiophen-3-yl)-2-methylbenzamide] | > 90% | > 90% |  |  | 
Cc1cc(C2=NOC(c3cc(Cl)c(F)c(Cl)c3)(C(F)(F)F)C2)ccc1C(=O)NC1CCSC1 (stereo not shown) [Compound I-23] |  |  | > 90% | > 90% | 
Cc1cc(C2=NOC(c3cc(Cl)c(F)c(Cl)c3)(C(F)(F)F)C2)ccc1C(=O)NC1CS(=O)(=O)C1 (stereo not shown) [X.82, reference compound] |  |  |  |  | mortality at 1.56 ppm ([3]; 1.56 ppm, larvae, cabbage leaves soaked 15 s, 72 hours, read-out: Mortality (%)): 0%; mortality at 3.125 ppm ([3]; 3.125 ppm, larvae, cabbage leaves soaked 15 s, 72 hours, read-out: Mortality (%)): 0%; mortality at 6.25 ppm ([3]; 6.25 ppm, larvae, cabbage leaves soaked 15 s, 72 hours, read-out: Mortality (%)): 65%; mortality at 0.333 ppm ([4]; 72 h, 0.333 ppm, 3rd instar larvae, sensitive strain, cabbage leaves soaked 10 s, three days, read-out: Mortality (%)): 0%; mortality at 1 ppm ([4]; 72 h, 1 ppm, 3rd instar larvae, sensitive strain, cabbage leaves soaked 10 s, three days, read-out: Mortality (%)): 10%
